The values that follow are results of earlier work, collected in patent US5968795A, “Biaryl acetylenes as inhibitors of matrix metalloproteases” (Bayer Corporation, priority 1997, dated 1999).

Data set [1] concerns human ovarian carcinoma xenografts. The following applies: given intraperitoneally; cited from earlier work.
In data set [2] the test system is human colon tumor. The following applies: given intraperitoneally; orthotopic model in nude mice; cited from earlier work.

For the compound `CNC(=O)[C@H](Cc1ccccc1)NC(=O)[C@H](CC(C)C)[C@H](CSc1cccs1)C(=O)NO` [batimastat], the “survival of mice bearing human ovarian carcinoma xenografts” value in data set [1] was “prolongs the survival of mice”. In addition, in data set [2], the “human colon tumor growth and spread” value was “inhibits human colon tumor growth and spread”.
